This is an account of results in ChEMBL document CHEMBL5715949, “Discovery of a selective irreversible BMX inhibitor for prostate cancer” (ACS Chem Biol, 2013).

Data set [1] has as its system RV-1. In words: Antiproliferative activity against human RV-1 cells assessed as reduction in cell viability at 1. 5 to 20 uM incubated for 3 days by tryphan blue assay. Type of data set: functional, cell-based. As to conditions: dose 5-20 µM, time 3.0 day.
Data set [2] has as its system BaF3. In words: Antiproliferative activity against mouse BaF3 cells expressing TEL-fused BMX assessed growth inhibition incubated for 2 to 5 days by CellTiter-Glo assay. Format: functional, cell-based. As to conditions: time 2-5 day.
The test system of data set [3] is BaF3. In words: Antiproliferative activity against mouse BaF3 cells expressing TEL-fused JAK2 assessed growth inhibition incubated for 2 to 5 days by CellTiter-Glo assay. Format: functional. As to conditions: time 2-5 day. (In general: ATP-based viability assays read luminescence as a measure of living cells.)
The nature of data set [4]: Down regulation of BMX protein expression in human RV-1 cells expressing BMX C496S mutant assessed protein expression level at 2.5 uM pre incubated for 4 hrs followed by compound wash out and additon of CHX and measured after 16 hrs by immunoblot analysis (reference value: 1.01 to 1.13). Format: functional.
Data set [5] in a line: Down regulation of BMX protein expression in human RV-1 cells expressing wild type BMX assessed protein expression level at 2.5 uM pre incubated for 4 hrs followed by compound wash out and additon of CHX and measured after 16 hrs by immunoblot analysis (reference value: 0.98 to 1.01). Type of data set: functional. In general terms: A western blot detects proteins with antibodies after separation by electrophoresis.

Data set [6] concerns RV-1. The experiment in a line: Down regulation of BMX protein expression in human RV-1 cells expressing wild type BMX at 5 uM incubated for 72 hrs by western blot analysis. Format: functional, cell-based.
Data set [7] deals with BaF3. The experiment in a line: Antiproliferative activity against mouse BaF3 cells expressing TEL-fused TYK2 […] mutant assessed growth inhibition incubated for 2 to 5 days by CellTiter-Glo assay. As to conditions: time 2-5 day. Format: functional.
Data set [8] can be described thus: Cytotoxicity against mouse BaF3 cells assessed growth inhibition incubated for 2 to 5 days by CellTiter-Glo assay. To be noted: time 2-5 day. Format: toxicity, cell-based.
The subject of data set [9] is RV-1. In words: Down regulation of BMX protein expression in human RV-1 cells expressing BMX C496S mutant at 5 uM incubated for 72 hrs by western blot analysis. Format: functional, cell-based.
A short description of data set [10]: Down regulation of BMX protein expression in human RV-1 cells expressing wild type BMX assessed protein expression level at 2.5 uM pre incubated for 4 hrs followed by compound wash out and additon of CHX and measured after 24 hrs by immunoblot analysis (reference value: 0.98 to 1.01). Type of data set: functional.
Data set [11] has as its system BaF3. The experiment in a line: Antiproliferative activity against mouse BaF3 cells expressing TEL-fused JAK3 assessed growth inhibition incubated for 2 to 5 days by CellTiter-Glo assay. As to conditions: time 2-5 day. Format: functional.
Data set [12] has as its system BaF3. The experiment in a line: Antiproliferative activity against mouse BaF3 cells expressing TEL-fused BLK assessed growth inhibition incubated for 2 to 5 days by CellTiter-Glo assay. To be noted: time 2-5 day. Format: functional.
In data set [13] the test system is BaF3. In words: Antiproliferative activity against mouse BaF3 cells expressing TEL-fused JAK1 assessed growth inhibition incubated for 2 to 5 days by CellTiter-Glo assay. Format: functional. To be noted: time 2-5 day.
Data set [14] is described as follows: Down regulation of BMX protein expression in human RV-1 cells expressing BMX C496S mutant assessed protein expression level at 2.5 uM pre incubated for 4 hrs followed by compound wash out and additon of CHX and measured after 24 hrs by immunoblot analysis (reference value: 1.01 to 1.13). Format: functional.
Data set [15] is described as follows: Inhibition of PI3K/AKT/mTOR signalling pathway in human RV-1 cells assessed as decrease in S6K phosphorylation at T389 residue at 200 nM incubated for 5 days by immunoblot analysis. Format: cell-based. As to conditions: time 5.0 day.
Data set [16] is described as follows: Induction of cell cycle arrest in human RV-1 cells assessed as accumulation of cells at G2/M phase at 200 nM incubated for 5 days by propidium iodide staining based flow cytometric analysis (reference value: 11.4 %). To be noted: time 5 day. Type of data set: functional. (In flow cytometry, cells or beads pass a laser one at a time.)
Data set [17] is described as follows: Inhibition of PI3K/AKT/mTOR signalling pathway in human RV-1 cells assessed as decrease in AKT phosphorylation at T308 residue at 200 nM incubated for 4 hrs by immunoblot analysis. Format: cell-based.
Data set [18] can be described thus: Inhibition of PI3K/AKT/mTOR signalling pathway in human RV-1 cells assessed as decrease in 4EBP phosphorylation at T37/46 residue at 200 nM incubated for 5 days by immunoblot analysis. Format: cell-based. To be noted: time 5.0 day.
Data set [19] can be described thus: Induction of cell cycle arrest in human RV-1 cells assessed as accumulation of cells at S phase at 200 nM incubated for 5 days by propidium iodide staining based flow cytometric analysis (reference value: 28.9 %). Type of data set: functional. To be noted: time 5 day.
For data set [20], the target named is Cytoplasmic tyrosine-protein kinase BMX (Homo sapiens) (UniProt P51813). In words: Inhibition of BMX (unknown origin) at < 10 uM by Z'LYTE assay.
Sequence of Cytoplasmic tyrosine-protein kinase BMX (Homo sapiens) (P51813 whole entry): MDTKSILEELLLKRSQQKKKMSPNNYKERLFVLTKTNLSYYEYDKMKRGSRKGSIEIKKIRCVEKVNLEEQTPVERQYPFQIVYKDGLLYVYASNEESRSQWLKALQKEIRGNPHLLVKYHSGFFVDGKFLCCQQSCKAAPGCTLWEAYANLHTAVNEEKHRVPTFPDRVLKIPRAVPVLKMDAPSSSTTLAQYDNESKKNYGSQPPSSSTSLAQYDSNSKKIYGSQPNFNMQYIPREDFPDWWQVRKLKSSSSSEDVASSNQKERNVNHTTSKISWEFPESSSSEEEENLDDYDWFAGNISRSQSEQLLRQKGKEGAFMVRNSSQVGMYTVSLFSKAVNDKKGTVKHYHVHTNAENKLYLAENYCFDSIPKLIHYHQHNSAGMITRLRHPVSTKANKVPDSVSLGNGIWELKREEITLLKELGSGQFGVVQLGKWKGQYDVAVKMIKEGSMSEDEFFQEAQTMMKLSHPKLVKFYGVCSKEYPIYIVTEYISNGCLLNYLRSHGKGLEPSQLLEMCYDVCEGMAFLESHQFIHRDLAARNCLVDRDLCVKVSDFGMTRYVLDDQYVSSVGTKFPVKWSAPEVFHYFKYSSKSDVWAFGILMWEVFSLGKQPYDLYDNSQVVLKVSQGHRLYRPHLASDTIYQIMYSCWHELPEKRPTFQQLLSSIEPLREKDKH
The nature of data set [21]: Inhibition of PI3K/AKT/mTOR signalling pathway in human RV-1 cells assessed as decrease in PRAS40 phosphorylation at T246 residue at 200 nM incubated for 4 hrs by immunoblot analysis. Format: cell-based.
A short description of data set [22]: Induction of cell cycle arrest in human RV-1 cells assessed as accumulation of cells at G1 phase at 200 nM incubated for 5 days by propidium iodide staining based flow cytometric analysis (reference value: 59.7 %). To be noted: time 5 day. Type of data set: functional.
Data set [23] can be described thus: Inhibition of PI3K/AKT/mTOR signalling pathway in human RV-1 cells assessed as decrease in AKT phosphorylation at S473 residue at 200 nM incubated for 4 hrs by immunoblot analysis. Type of data set: cell-based.

Structures are written as SMILES. The source made the active and inactive calls. No cut-off for these calls is given here.

For the molecule `C=CC(=O)N1CCC[C@@H](n2nc(-c3ccc(Oc4ccccc4)cc3)c3c(N)ncnc32)C1`, the result with RV-1 [1] was Active.

Consider `CCC(=O)Nc1cc(-n2c(=O)ccc3cnc4ccc(NS(C)(=O)=O)cc4c32)ccc1C`, for which the GI50 (with BaF3 [2]; in the data set on BaF3 [3]; with BaF3 [7]; in data set [8]; in the data set on BaF3 [11]; in the data set on BaF3 [12]) was greater than 10 µM throughout. Also, the GI50 (usually the concentration at which growth is held to half of that of the control) in the data set with BaF3 [13] is greater than 10 µM. Also, the Activity came out at 0.8 in data set [4], 0.64 in data set [5], 0.72 in data set [10] and 0.51 in data set [14]. Further, the result in the data set with RV-1 [6] and in the data set on RV-1 [9] was inactive.

On to `Cl.NC1(c2ccc(-c3nc4ccn5c(=O)[nH]nc5c4cc3-c3ccccc3)cc2)CCC1`, for which the inhibition result in data set [15], in [17], in data set [18], in [21] and in data set [23] was “Active” in each case. Further, the values for the Activity in data set [16], in data set [19] and in data set [22] were 10.9%, 29.1% and 60%, respectively. Also, the inhibition entry in data set [20] was “inactive”.
